Laboratory results as given in patent US6099822A, “Imaging methods and compositions” (priority 1998, dated 2000).

Tests used:
[1] = tested on: MX-1 human breast tumor xenografts; experiment: Autoradiographic biodistribution of Tc-99m-TG and C14-DG in nude mice bearing MX-1 tumors; type: in vivo; conditions: MX-1, center of the tumors, in words
Description: 3 mCi (111 MBq) of Tc-99m-5TG and 5 μCi (185 kBq) of C^14 -DG were injected at the same time into the tail vein of the mice. Autoradiogram sections including the tumors and vital organs of the mice were obtained at 20 minutes, 1 hour, and 3 hours post injection and developed using simultaneous Tc-99m and C^14 exposures of the same sections.

[2] = tested on: Chinese hamster ovary cells; conditions: in words; cited from earlier work

## C^14 -2-deoxyglucose [C^14 -DG]
[1]
  Distribution within tumor: decreased activity in this central area

## O=C([O-])CN(CCN(CC(=O)[O-])CC(=O)[O-])CCN(CC(=O)[O-])CC(=O)[O-].[99Tc+4] [Tc-99m-DTPA]
[2]
  Exclusion by hypoxic cells: exclusion of Tc-99m-DTPA by hypoxic cells
